From patent publication US8263791B2, “Method and reagent for protein analysis” (National Institute of Advanced Industrial Science and …, priority 2008, dated 2012)
“And” between values parts separate entries of the source, which are not always exact repeats. Equal values may be shown once.

How the values were obtained:
[1] = system: Protein Standard Mixture IV (ovotransferrin, albumin, ovalbumin, carboanhydrase, myoglobin, cytochrome C); assay: Evaluation of protein detection using Compound 1 and Compound 2 (staining after electrophoresis, Tween80); parameters: key to Detection: +: All bands could be detected.; −: At least one band could not be detected; details: for Detection / Detection limit (protein per band that could be detected): compound 60 μg/mL; for Detection limit (protein per band that could be detected): 1% Tween80 before and after staining
Experimental: (§1) Two (2) mL of a stock buffer (a mixture of purified water (4.2 mL), 0.5 M Tris-hydrochloric acid buffer (pH 8.6) (1.0 mL), glycerol (0.8 mL), 100 g/L sodium dodecyl sulfate (1.6 mL), and 2-mercaptoethanol (0.4 mL)) was added to 2 mg of a commercially available molecular weight marker (Protein Standard Mixture IV; Merck & Co., Inc.). The mixture was heated in boiling water for 2 minutes and then cooled. Thirty (30) μL each of the resultant was dispensed in a 0.5-mL microtube and then cryopreserved at −80° C. until the use thereof. A sample diluent (a mixture of purified water (3.8 mL), 0.5 M Tris-hydrochloric acid buffer (pH 8.6) (1.0 mL), glycerol (0.8 mL), 100 g/L sodium dodecyl sulfate (1.6 mL), and 5 g/L bromophenol blue (0.8 mL)) was added to the thawed molecular weight marker, so that a dilution series with protein concentrations ranging from 0.4 ng/μL to 200 ng/μL was prepared.
(§2) The marker contained, in terms of mass, equal amounts of ovotransferrin (78 kDa), albumin (66.3 kDa), ovalbumin (42.7 kDa), carboanhydrase (30 kDa), myoglobin (16.9 kDa), and cytochrome C (12.4 kDa).
(§3) • Electrophoresis apparatus: RAPIDAS-Mini-Slab electrophoresis chamber AE6450 (ATTO Corporation) • Polyacrylamide gel: Multigel II mini 10/20 (13W) (COSMO BIO Co., Ltd.) • Buffer for electrophoresis: 27.2 mM Tris (hydroxymethyl) aminomethane, 192 mM glycine, 3.5 mM Sodium dodecyl sulfate (pH 8.3) • Fluorescence imaging analyzer: Light capture II (ATTO Corporation)
(§4) Each sample of the dilution series prepared in (1) above was applied to a gel at 5 μL/well (lane 1: 167 ng of protein/band; lane 2: 83.3 ng/band; lane 3: 41.7 ng/band; lane 4: 20.8 ng/band; lane 5: 10.4 ng/band; lane 6: 5.2 ng/band; lane 7: 2.6 ng/band; lane 8: 1.3 ng/band; lane 9: 0.7 ng/band; and lane 10: 0.4 ng/band) and then subjected to electrophoresis with constant current of 30 mA for 45 minutes.
(§5) Protein detection was carried out using Compound 1 and Compound 2 synthesized in Example 1 under analysis conditions described in Example 3. After electrophoresis, the gel was first immersed in 1% Tween80 aqueous solution for 20 minutes and then immersed in a buffer containing Compound 1 (60 μg/mL) or Compound 2 (60 μg/mL) for 10 minutes. Subsequently, the gel was transferred to and immersed in a container containing a 1% Tween80 aqueous solution for 30 minutes. […] The total time needed for treatment was 60 minutes. The gel was analyzed using a fluorescence imaging analyzer. When Compound 1 was used, bands containing 2.6 ng or more of proteins could be detected. Compared with the result, the detection limit was 20 ng in the case of Compound 2.

[2] = system: Protein Standard Mixture IV (ovotransferrin, albumin, ovalbumin, carboanhydrase, myoglobin, cytochrome C); assay: Protein detection with staining carried out during electrophoresis; parameters: key to Detection: +: All bands could be detected.; −: At least one band could not be detected; details: compound 15 μg/mL in electrophoresis buffer
Experimental: Compound 1 or Compound 2 were dissolved in a buffer for electrophoresis (27.2 mM Tris (hydroxymethyl)aminomethane, 192 mM glycine, and 3.5 mM sodium dodecyl sulfate (pH 8.3)) at a concentration of 15 μg/mL. With the use of the above buffer, the other conditions identical to those described in Example 3 were employed to carry out electrophoresis. After completion of electrophoresis, the gel was transferred to a container containing 1% Tween80 aqueous solution, left to stand for 40 minutes, and then analyzed using a fluorescence imaging analyzer. When Compound 1 was used, bands containing 5.2 ng or more of a protein could be detected.

[3] = Water solubility / precipitation in the staining solution; assay type: physicochemical
Experimental: (§6) After electrophoresis, the gel was immediately immersed in a solution (I) (purified water, 1% Tween80 aqueous solution, or 1% Tween20 aqueous solution) for a predetermined period of time (20 minutes or 30 minutes). Subsequently, the gel was transferred to another container and then a buffer (purified water/25 mM phosphate buffer (pH 2.5)/methanol=45/45/10 (v/v)) in which Compound 1 (100 μg/mL) had been dissolved was added. After being left to stand for 10 minutes, the gel was transferred to another container and then immersed in a solution (II) (purified water, 1% Tween80 aqueous solution, or 1% Tween20 aqueous solution) for decoloration.
as §5
(§7) After electrophoresis, the gel was immediately immersed in distilled water for 20 to 30 minutes. Subsequently, the gel was transferred to another container and then a staining solution (distilled water:methanol=1:1 (v/v)) in which Compound 3 (100 μg/mL) had been dissolved was added. After 30 minutes of immersion, the gel was transferred to another container and then immersed in a wash solution (water:methanol=90:10 (v/v)) for decoloration. The gel was observed using a fluorescence imaging analyzer.

[4] = Measurement of maximum absorption wavelength and maximum fluorescence wavelength; assay type: physicochemical; details: 25 μg/mL in purified water
Experimental: Compound 1 and Compound 2 were separately dissolved in purified water at a concentration of 25 μg/mL. The absorption spectra at a wavelength ranging from 200 nm to 800 nm and the fluorescence spectra at a wavelength ranging from 450 nm to 600 nm were measured. The absorption spectra were measured using U3310 (Hitachi High-Technologies Corporation) and the fluorescence spectra were measured using RF-1500 (Shimadzu Corporation).

[5] = system: Protein Standard Mixture IV (ovotransferrin, albumin, ovalbumin, carboanhydrase, myoglobin, cytochrome C); assay: Protein detection on SDS-PAGE gel by staining after electrophoresis, varying solutions (I)/(II); details: 100 μg/mL
Experimental: as §1, §2, §3
Light source: green LED (center wavelength: 525 nm)
Cut filter: R-60 (550 nm).
as §4, §6

BSA = target: T1, BSA (Bos taurus, UniProt P02769); assay: Evaluation of protein detection using Compound 3; parameters: key to Detection: +: Band could be detected.; −: No band could be detected
T1 construct: purchased PIERCE
Experimental: Protein samples were prepared as follows: Sample buffer (0.0625 M Tris-HCl (pH 6.8), 5% 2-mercaptoethanol, 2% SDS, 20% glycerol, and 0.005% BPB) was added to 2.0 mg/mL commercially available BSA (PIERCE). to dilute it to concentrations of 200, 60, 30, 12, 6, 3, and 0.2 ng/μL, respectively. These protein samples were heated at 80° C. for 5 minutes and then left to stand to cool.
Conditions for electrophoresis are as follows: • Electrophoresis apparatus: ERICA XVE-001C (DRC Co., Ltd.) • Polyacrylamide gel: XV PANTERA Gel (DRC Co., Ltd.) • Buffer for electrophoresis: electrophoresis buffer attached to XV PANTERA Gel • Fluorescence imaging analyzer: LS400 (TECAN GROUP LTD) • Excitation wavelength: 543 nm; detection wavelength: 590 nm.
Each of the above prepared samples was applied to a gel at 5 μL/well (1000, 300, 150, 60, 30, 15, and 1 ng/band, respectively), followed by electrophoresis.
as §7

T1 sequence (P02769 25-607): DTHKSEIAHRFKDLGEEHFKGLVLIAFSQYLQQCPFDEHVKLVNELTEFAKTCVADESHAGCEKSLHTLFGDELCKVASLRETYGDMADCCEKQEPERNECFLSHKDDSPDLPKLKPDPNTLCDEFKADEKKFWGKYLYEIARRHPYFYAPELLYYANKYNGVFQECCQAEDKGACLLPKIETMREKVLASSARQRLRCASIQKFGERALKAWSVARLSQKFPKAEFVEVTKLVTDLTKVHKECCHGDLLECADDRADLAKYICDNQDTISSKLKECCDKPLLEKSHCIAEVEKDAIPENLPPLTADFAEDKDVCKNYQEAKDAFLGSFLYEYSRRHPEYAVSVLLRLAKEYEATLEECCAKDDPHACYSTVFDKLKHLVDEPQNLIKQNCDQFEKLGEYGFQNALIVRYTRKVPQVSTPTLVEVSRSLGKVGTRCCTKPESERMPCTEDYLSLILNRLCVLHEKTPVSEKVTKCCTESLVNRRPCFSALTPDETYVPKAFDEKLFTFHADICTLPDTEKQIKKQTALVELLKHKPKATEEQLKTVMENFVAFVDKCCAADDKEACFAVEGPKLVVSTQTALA

SMILES | Detection ([1]; Lane 1, protein 167 ng/band) | Detection ([1]; Lane 2, protein 83.3 ng/band) | Detection ([1]; Lane 3, protein 41.7 ng/band) | Detection ([1]; Lane 4, protein 20.8 ng/band) | Detection ([1]; Lane 5, protein 10.4 ng/band) | Detection ([1]; Lane 6, protein 5.2 ng/band) | Detection ([1]; Lane 7, protein 2.6 ng/band) | Detection ([1]; Lane 8, protein 1.3 ng/band) | Detection ([1]; Lane 9, protein 0.7 ng/band) | Detection ([1]; Lane 10, protein 0.4 ng/band) | Detection limit (protein per band that could be detected) [1] | Detection ([2]; Lane 1, protein 167 ng/band) | Detection ([2]; Lane 2, protein 83.3 ng/band) | Detection ([2]; Lane 3, protein 41.7 ng/band) | Detection ([2]; Lane 4, protein 20.8 ng/band) | Detection ([2]; Lane 5, protein 10.4 ng/band) | Detection ([2]; Lane 6, protein 5.2 ng/band) | Detection ([2]; Lane 7, protein 2.6 ng/band) | Detection ([2]; Lane 8, protein 1.3 ng/band) | Detection ([2]; Lane 9, protein 0.7 ng/band) | other results
N#CC(C#N)=C1C=C(/C=C/c2ccccc2S(=O)(=O)[O-])OC(/C=C/c2ccccc2S(=O)(=O)[O-])=C1.[Na+].[Na+] [Compound 1, 2,2′-(1E,1′E)-2,2′-(4-(dicyanomethylene)-4H-pyrane-2,6-diyl)bis(ethene-2,1-diyl)bis(sodium benzenesulfonate)salt] | + | + | + | + | + | + | + | − | − | − | ≥ 2.6 ng | + | + | + | + | + | + | + | − | − | Relationship between protein concentration of each band and fluorescence intensity ([1]; FIG. 2, all proteins of the marker): no differences due to protein type were observed; Detection ([2]; Lane 10, protein 0.4 ng/band): −; Protein per band that could be detected ([2]; 1% Tween80 40 minutes): ≥ 5.2 ng; Precipitation in the solutions during staining ([3]; 60 μg/mL in buffer, Example 4): no precipitation; Precipitation in the solutions during staining ([3]; 100 μg/mL in purified water/25 mM phosphate buffer (pH 2.5)/methanol=45/45/10): no precipitation; Excitation wavelength for maximum fluorescence [4]: 444 nm; Maximum absorption wavelength [4]: 293 nm and 380 nm; Maximum fluorescence wavelength [4]: 516 nm; Detection sensitivity ([5]; Conditions 1: solution (I) purified water, solution (II) purified water): 5 ng; Detection sensitivity ([5]; Conditions 2: solution (I) Tween80, solution (II) purified water): 5 ng; Detection sensitivity ([5]; Conditions 3: solution (I) purified water, solution (II) Tween80): 5 ng; Detection sensitivity ([5]; Conditions 4: solution (I) Tween80, solution (II) Tween80): 5 ng; Detection sensitivity ([5]; Conditions 5: solution (I) Tween20, solution (II) Tween20): 10 ng
CC1=CC(=C(C#N)C#N)C=C(/C=C/c2ccccc2S(=O)(=O)[O-])O1.[Na+] [Compound 2, (E)-2-(2-(4-(dicyanomethylene)-6-methyl-4H-pyrane-2-yl)vinyl)sodium Benzenesulfonate] | + | + | + | + | − | − | − | − | − | − | 20 ng | − | − | − | − | − | − | − | − | − | Detection ([2]; Lane 10, protein 0.4 ng/band): −; Protein detection (in words) ([2]; 1% Tween80 40 minutes): proteins other than cytochrome C could not be detected; Excitation wavelength for maximum fluorescence [4]: 440 nm; Maximum absorption wavelength [4]: 388 nm; Maximum fluorescence wavelength [4]: 511 nm
CC1=CC(=C(C#N)C#N)C=C(/C=C/c2ccc(O)c3ccccc23)O1 [Compound 3] |  |  |  |  |  |  |  |  |  |  |  |  |  |  |  |  |  |  |  |  | Sensitivity lower than that of the compound of the present invention (BSA): ≥ 10 times; Detection (BSA; BSA 1 ng/band, compound 100 μg/mL): −; Detection (BSA; BSA 15 ng/band, compound 100 μg/mL): −; Detection (BSA; BSA 30 ng/band, compound 100 μg/mL): +; Detection (BSA; BSA 60 ng/band, compound 100 μg/mL): +; Detection (BSA; BSA 150 ng/band, compound 100 μg/mL): +; Detection (BSA; BSA 300 ng/band, compound 100 μg/mL): +; Detection (BSA; BSA 1000 ng/band, compound 100 μg/mL): +; Protein detection sensitivity (BSA; BSA, compound 100 μg/mL): 30 ng; False positive spots after washing step (BSA; wash solution water:methanol=90:10): insoluble matter adhering to the gel appeared as false positive spots; Solubility in water [3]: hardly soluble in water; Precipitation in the staining solution during staining ([3]; 100 μg/mL in distilled water:methanol=1:1): precipitated in the staining solution
